Reference: patent publication US12661356B2, “L718 and/or L792 mutant treatment-resistant EGFR inhibitor” (TAIHO PHARMACEUTICAL CO., LTD., priority 2018, dated 2026)

Assays:
Assay in all cases: Intracellular EGFR phosphorylation, mutant EGFR forced expression system using HEK293 cells
Assay type in all cases: cell-based
Conditions in all cases: 6 hours incubation, p-EGFR (Tyr1068)/EGFR
[1] = target: T1, human EGFR L858R+T790M+L792Y (Homo sapiens, UniProt P00533, L792Y/L858R/T790M)
T1 construct: expressed in transfected cells; host or cells: Jump-In Grip HEK293 cells (Thermo Fisher Scientific)

[2] = target: T2, human EGFR L858R+T790M+L792F (Homo sapiens, UniProt P00533, L792F/L858R/T790M)
T2 construct: expressed in transfected cells; host or cells: Jump-In Grip HEK293 cells (Thermo Fisher Scientific)

[3] = target: T3, human EGFR Ex19del+T790M+L792Y (Homo sapiens, UniProt P00533, DEL746-750/L792Y/T790M)
T3 construct: expressed in transfected cells; host or cells: Jump-In Grip HEK293 cells (Thermo Fisher Scientific)
T3 sequence (P00533 with tags, fused parts or gaps DEL746-750/T790M/L792Y): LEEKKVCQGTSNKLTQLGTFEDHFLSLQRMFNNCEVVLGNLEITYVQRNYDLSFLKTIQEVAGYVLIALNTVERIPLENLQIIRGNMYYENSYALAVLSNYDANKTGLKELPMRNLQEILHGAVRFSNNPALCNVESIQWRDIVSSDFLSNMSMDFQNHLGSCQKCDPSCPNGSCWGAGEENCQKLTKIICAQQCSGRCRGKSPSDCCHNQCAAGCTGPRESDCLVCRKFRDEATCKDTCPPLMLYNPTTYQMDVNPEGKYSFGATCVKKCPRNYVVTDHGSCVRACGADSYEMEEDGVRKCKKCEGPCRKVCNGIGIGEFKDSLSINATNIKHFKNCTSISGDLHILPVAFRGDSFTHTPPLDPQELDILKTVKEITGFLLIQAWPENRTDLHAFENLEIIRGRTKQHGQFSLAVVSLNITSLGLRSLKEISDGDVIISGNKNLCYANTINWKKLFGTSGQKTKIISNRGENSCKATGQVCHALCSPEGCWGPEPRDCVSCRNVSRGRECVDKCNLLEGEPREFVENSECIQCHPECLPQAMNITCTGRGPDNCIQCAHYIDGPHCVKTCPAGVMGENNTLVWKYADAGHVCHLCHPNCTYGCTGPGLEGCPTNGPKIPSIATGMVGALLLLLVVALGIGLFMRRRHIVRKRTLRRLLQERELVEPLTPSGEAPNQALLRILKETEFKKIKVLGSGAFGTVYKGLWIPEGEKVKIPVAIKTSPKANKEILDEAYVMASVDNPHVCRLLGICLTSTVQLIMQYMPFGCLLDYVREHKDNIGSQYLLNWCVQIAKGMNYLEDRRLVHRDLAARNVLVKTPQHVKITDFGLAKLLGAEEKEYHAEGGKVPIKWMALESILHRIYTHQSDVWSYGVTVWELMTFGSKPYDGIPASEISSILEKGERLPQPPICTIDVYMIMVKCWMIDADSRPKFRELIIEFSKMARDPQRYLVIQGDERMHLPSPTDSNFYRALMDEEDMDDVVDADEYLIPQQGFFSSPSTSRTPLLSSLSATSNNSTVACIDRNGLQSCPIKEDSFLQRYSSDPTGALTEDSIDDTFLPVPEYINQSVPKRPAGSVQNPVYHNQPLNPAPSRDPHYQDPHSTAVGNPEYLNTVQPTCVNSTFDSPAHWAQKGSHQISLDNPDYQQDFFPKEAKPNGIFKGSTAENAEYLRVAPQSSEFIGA

human EGFR L858R+T790M = target: T4, human EGFR L858R+T790M (Homo sapiens, UniProt P00533, L858R/T790M)
T4 construct: expressed in transfected cells; host or cells: Jump-In Grip HEK293 cells (Thermo Fisher Scientific)

[4] = target: T5, human EGFR Ex19del (Del E746-A750) (Homo sapiens, UniProt P00533, DEL746-750)
T5 construct: expressed in transfected cells; host or cells: Jump-In Grip HEK293 cells (Thermo Fisher Scientific)

[5] = target: T6, human EGFR Ex19del+T790M+L792H (Homo sapiens, UniProt P00533, DEL746-750/L792H/T790M)
T6 construct: expressed in transfected cells; host or cells: Jump-In Grip HEK293 cells (Thermo Fisher Scientific)

[6] = target: T7, human EGFR L858R+T790M+L718Q (Homo sapiens, UniProt P00533, L718Q/L858R/T790M)
T7 construct: expressed in transfected cells; host or cells: Jump-In Grip HEK293 cells (Thermo Fisher Scientific)
T7 sequence (P00533 25-1210 L718Q/T790M/L858R): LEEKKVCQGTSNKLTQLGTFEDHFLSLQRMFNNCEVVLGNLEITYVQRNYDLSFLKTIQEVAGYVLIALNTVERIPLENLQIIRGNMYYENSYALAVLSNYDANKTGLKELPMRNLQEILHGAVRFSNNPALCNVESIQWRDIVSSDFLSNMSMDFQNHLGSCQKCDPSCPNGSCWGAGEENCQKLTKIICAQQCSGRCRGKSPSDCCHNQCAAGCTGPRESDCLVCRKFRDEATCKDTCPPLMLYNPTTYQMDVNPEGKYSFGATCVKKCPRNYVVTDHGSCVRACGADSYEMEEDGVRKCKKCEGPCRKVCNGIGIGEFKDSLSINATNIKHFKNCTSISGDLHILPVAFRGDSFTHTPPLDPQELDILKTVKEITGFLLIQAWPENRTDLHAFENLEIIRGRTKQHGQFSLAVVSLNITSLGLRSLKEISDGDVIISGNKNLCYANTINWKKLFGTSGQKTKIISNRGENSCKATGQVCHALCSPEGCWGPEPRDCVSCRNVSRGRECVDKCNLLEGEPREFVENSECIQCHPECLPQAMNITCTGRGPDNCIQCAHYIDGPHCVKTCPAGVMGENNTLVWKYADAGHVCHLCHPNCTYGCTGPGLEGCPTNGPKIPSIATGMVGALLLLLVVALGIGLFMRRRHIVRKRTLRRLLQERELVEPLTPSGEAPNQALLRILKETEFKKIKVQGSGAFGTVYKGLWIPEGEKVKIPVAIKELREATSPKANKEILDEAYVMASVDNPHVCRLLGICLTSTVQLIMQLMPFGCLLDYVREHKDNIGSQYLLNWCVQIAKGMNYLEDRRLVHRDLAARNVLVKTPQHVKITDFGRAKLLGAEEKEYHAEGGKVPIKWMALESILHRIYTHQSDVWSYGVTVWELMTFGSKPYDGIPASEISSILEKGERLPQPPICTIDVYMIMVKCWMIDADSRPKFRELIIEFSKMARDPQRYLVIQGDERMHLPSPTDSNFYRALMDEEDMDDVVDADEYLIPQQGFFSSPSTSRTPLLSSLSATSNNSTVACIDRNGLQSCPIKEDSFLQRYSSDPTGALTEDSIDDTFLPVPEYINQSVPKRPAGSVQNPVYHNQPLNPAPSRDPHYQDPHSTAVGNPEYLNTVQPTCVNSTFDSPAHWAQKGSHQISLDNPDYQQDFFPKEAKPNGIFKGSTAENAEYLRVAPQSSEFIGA

human EGFR L858R = target: T8, human EGFR L858R (Homo sapiens, UniProt P00533, L858R)
T8 construct: expressed in transfected cells; host or cells: Jump-In Grip HEK293 cells (Thermo Fisher Scientific)

human EGFR Ex19del+T790M = target: T9, human EGFR Ex19del+T790M (Homo sapiens, UniProt P00533, DEL746-750/T790M)
T9 construct: expressed in transfected cells; host or cells: Jump-In Grip HEK293 cells (Thermo Fisher Scientific)
T9 sequence (P00533 with tags, fused parts or gaps DEL746-750/T790M): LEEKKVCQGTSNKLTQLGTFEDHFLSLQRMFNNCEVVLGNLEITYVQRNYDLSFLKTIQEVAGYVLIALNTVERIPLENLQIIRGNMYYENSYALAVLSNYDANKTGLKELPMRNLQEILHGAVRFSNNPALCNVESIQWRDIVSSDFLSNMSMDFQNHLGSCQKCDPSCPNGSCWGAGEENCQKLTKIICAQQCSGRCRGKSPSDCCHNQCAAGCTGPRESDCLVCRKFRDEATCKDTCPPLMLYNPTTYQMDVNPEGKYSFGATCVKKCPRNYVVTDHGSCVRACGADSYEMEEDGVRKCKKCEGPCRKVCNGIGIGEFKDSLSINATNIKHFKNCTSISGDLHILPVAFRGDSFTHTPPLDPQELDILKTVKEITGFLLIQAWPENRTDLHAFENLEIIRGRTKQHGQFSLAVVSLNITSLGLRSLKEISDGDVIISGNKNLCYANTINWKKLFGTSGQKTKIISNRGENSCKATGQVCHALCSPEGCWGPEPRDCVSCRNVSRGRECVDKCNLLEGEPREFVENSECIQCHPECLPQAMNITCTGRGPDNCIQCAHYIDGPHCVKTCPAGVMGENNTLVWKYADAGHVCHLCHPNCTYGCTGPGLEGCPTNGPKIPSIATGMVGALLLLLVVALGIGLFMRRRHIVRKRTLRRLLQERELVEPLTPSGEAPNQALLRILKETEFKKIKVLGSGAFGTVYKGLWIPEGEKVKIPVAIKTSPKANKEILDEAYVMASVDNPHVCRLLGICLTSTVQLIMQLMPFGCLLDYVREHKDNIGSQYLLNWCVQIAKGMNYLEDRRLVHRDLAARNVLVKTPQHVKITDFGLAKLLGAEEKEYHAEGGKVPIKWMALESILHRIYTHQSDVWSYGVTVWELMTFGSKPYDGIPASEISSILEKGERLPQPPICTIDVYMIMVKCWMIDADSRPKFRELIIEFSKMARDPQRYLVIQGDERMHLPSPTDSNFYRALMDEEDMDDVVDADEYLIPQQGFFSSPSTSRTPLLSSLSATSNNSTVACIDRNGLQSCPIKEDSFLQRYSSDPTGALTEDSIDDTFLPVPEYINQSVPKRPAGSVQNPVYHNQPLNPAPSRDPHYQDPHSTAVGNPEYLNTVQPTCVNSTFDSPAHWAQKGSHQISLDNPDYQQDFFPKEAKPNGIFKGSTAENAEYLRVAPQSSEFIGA

[7] = target: T10, human EGFR Ex19del+T790M+L792F (Homo sapiens, UniProt P00533, DEL746-750/L792F/T790M)
T10 construct: expressed in transfected cells; host or cells: Jump-In Grip HEK293 cells (Thermo Fisher Scientific)

[8] = target: T11, human EGFR L858R+T790M+L792H (Homo sapiens, UniProt P00533, L792H/L858R/T790M)
T11 construct: expressed in transfected cells; host or cells: Jump-In Grip HEK293 cells (Thermo Fisher Scientific)
T11 sequence (P00533 25-1210 T790M/L792H/L858R): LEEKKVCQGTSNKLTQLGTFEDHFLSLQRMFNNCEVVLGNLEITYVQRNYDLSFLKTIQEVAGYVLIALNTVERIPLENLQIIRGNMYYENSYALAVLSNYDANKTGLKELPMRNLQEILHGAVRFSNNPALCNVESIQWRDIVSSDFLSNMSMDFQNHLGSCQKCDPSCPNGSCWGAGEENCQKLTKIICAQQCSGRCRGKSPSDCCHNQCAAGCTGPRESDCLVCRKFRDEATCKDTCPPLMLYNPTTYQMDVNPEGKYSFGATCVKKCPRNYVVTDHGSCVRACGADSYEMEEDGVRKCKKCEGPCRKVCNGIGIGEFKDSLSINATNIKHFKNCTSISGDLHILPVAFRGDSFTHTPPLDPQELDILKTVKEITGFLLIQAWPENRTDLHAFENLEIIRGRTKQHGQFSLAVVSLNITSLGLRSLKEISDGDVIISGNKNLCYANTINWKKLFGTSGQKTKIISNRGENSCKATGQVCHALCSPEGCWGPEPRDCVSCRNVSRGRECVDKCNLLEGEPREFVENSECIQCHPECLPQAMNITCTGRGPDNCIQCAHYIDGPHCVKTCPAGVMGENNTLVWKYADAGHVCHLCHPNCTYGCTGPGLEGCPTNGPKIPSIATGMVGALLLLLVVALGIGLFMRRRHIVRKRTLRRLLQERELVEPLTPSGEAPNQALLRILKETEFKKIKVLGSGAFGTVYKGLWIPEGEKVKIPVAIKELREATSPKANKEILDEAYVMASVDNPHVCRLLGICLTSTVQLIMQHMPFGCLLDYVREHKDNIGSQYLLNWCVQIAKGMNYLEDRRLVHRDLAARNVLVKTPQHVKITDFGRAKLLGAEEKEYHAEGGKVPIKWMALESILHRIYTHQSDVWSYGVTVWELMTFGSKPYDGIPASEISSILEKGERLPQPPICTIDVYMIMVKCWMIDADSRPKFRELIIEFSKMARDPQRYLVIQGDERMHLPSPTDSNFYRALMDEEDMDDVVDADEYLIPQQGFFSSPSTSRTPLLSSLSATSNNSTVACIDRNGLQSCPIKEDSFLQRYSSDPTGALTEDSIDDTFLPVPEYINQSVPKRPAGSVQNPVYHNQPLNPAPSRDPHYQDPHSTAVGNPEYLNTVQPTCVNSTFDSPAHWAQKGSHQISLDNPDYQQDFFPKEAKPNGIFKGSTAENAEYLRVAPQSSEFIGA

[9] = target: T12, human EGFR Ex19del+T790M+L718Q (Homo sapiens, UniProt P00533, DEL746-750/L718Q/T790M)
T12 construct: expressed in transfected cells; host or cells: Jump-In Grip HEK293 cells (Thermo Fisher Scientific)

C=CC(=O)N[C@H]1C=C(C)c2c(-c3cnc4ccccc4c3)c3c(N)ncnc3n2C1 [Compound A, (S)—N-(4-amino-6-methyl-5-(quinolin-3-yl)-8,9-dihydropyrimido[5,4-b]indolizin-8-yl) acrylamide]
IC50 [1]: 11.3 ± 5.8 µM
IC50 [2]: 9.07 ± 4.74 µM
IC50 [3]: 6.54 ± 1.49 µM
IC50 (human EGFR L858R+T790M): 16 ± 2.6 µM
IC50 [4]: 11.2 ± 6.4 µM
IC50 [5]: 11.1 ± 5.6 µM
IC50 [6]: 104 ± 40 µM
IC50 (human EGFR L858R): 13.8 ± 3.8 µM
IC50 (human EGFR Ex19del+T790M): 16.9 ± 5.9 µM
IC50 [7]: 6.25 ± 1.83 µM
IC50 [8]: 15.3 ± 5 µM
IC50 [9]: 82.5 ± 9 µM
